Test [1] has as its target Serine/threonine-protein kinase B-raf [V600E] (Homo sapiens, UniProt P15056, V600E). The test can be described thus: Biochemical Assay. Particulars: pH 7.5; 25 °C. The method, then: (§1) Compounds were prepared in DMSO at 10mmol/L and serially diluted in a 96-well plate as the source plate. The intermediate plate consists of 4µL from the source plate mixed with 96µL of 1× kinase buffer (50mmol/L HEPES, pH 7.5; 10mmol/L MgCl2; 1mmol/L EGTA; 0.01% Brij-35). Of 2.5µL was transferred to a 384-well assay plate in duplicates. To the assay plate, 5µL of BRAF 7nmol/L or BRAF V600E 0.7nmol/L, 2.5µL of substrate solution containing Fluorescein-MAP2K1 0.8µmol/L and ATP (for BRAF 2µmol/L, for BRAF V600E 6µmol/L) were added and the assay plate was incubated with the compounds for 1 h at room temperature. The reaction was stopped with the addition of 10µL of detection solution (antibody 4nmol/L and EDTA 20mmol/L in antibody dilution buffer) to each well of the assay plate.

Test [2] concerns the target Serine/threonine-protein kinase B-raf (Homo sapiens, UniProt P15056). The test is described as follows: Biochemical Assay. Particulars: pH 7.5; 25 °C. The method, then: as §1

pIC50: −log10 of the molar value.

Sequence of Serine/threonine-protein kinase B-raf (P15056 whole entry): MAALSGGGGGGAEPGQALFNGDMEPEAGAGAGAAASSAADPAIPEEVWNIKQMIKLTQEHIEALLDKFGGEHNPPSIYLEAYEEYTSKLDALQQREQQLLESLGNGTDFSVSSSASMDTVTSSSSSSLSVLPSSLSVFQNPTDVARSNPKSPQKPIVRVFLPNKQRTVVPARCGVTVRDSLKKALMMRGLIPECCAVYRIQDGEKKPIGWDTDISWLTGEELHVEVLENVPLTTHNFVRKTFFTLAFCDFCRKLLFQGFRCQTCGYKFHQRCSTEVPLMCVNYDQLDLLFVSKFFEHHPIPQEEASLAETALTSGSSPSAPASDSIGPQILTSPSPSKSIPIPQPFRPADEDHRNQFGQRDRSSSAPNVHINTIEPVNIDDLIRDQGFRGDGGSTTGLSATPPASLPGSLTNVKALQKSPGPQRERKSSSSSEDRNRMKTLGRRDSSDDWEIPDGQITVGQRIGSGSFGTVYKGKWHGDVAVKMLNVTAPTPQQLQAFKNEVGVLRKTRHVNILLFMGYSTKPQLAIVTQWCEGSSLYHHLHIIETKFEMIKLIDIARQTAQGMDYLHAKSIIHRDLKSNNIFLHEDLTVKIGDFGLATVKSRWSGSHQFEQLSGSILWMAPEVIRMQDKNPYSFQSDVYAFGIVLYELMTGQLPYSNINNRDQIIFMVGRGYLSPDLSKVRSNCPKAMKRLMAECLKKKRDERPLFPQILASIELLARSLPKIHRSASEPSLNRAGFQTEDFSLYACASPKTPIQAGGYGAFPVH
Sequence of Serine/threonine-protein kinase B-raf [V600E] (P15056 2-766 V600E limits assumed): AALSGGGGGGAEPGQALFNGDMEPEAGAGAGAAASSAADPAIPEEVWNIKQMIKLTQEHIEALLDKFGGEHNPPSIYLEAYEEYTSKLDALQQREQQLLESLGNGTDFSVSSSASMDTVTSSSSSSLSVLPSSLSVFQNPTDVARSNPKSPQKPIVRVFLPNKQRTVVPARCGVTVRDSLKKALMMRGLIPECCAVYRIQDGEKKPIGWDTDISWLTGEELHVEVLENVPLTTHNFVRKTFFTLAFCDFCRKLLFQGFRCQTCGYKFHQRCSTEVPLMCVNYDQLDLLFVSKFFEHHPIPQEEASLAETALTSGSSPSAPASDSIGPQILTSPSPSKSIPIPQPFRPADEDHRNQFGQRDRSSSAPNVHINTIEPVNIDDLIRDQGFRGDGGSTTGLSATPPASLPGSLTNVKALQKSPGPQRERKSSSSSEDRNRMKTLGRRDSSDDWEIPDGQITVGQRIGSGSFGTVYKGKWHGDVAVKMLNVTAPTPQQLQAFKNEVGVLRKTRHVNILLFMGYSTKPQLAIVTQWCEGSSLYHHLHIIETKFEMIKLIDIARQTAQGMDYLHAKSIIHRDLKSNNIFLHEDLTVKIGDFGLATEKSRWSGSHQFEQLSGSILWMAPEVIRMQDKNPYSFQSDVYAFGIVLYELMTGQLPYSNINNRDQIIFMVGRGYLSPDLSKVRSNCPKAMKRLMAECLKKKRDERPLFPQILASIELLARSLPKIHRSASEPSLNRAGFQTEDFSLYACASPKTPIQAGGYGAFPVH

As a reminder, the pIC50 is −log10 of the IC50, conventionally taken in molar units. Lower therefore signals a high IC50. As for `Cc1nc(Cl)cc(Nc2cccc(NC(=O)Nc3ccc(Cl)c(C(F)(F)F)c3)c2)n1` [1-(3-(6-Chloro-2-methylpyrimidin-4-ylamino)phenyl)-3-(4-chloro-3-(trifluoromethyl)phenyl)urea (Compound 1)], the pIC50 in test [1] was 6.53; in test [2], 6.14.

As to `Cc1nc(Nc2cccc(NC(=O)Nc3ccc(F)c(Cl)c3)c2)cc(N2CCOCC2)n1` [1-(3-Chloro-4-fluorophenyl)-3-(3-(2-methyl-6-morpholinopyrimidin-4-ylamino)phenyl)urea (Compound 2)], the pIC50 in test [1] was 6.20; in test [2], 5.97.

On to `Cc1nc(N2CCOCC2)cc(N(C)c2cccc(NC(=O)Nc3ccc(F)c(Cl)c3)c2)n1` [1-(3-Chloro-4-fluorophenyl)-3-(3-(methyl (2-methyl-6-morpholinopyrimidin-4-yl)amino)phenyl)urea (Compound 5)], for which the pIC50 in test [1] is 6.63; in test [2], 6.44.

With `Cc1nc(Nc2cccc(NC(=O)Nc3ccc(Cl)c(C(F)(F)F)c3)c2)cc(N2CCN(C)CC2)n1` [1-(4-Chloro-3-(trifluoromethyl)phenyl)-3-(3-(2-methyl-6-(4-methylpiperazin-1-yl)pyrimidin-4-ylamino)phenyl)urea (Compound 4)], the pIC50 in test [1] was 5.14; in test [2], below 5.00.

For `Cc1nc(Nc2cccc(NC(=O)Nc3ccc(Cl)c(C(F)(F)F)c3)c2)cc(N2CCOCC2)n1` [1-(4-Chloro-3-(trifluoromethyl)phenyl)-3-(3-(2-methyl-6-morpholinopyrimidin-4-ylamino)phenyl) urea (Compound 3)], the pIC50 is 6.85 in test [1] and 6.57 in test [2].

Take `Cc1nc(N2CCN(C)CC2)cc(N(C)c2cccc(NC(=O)Nc3ccc(Cl)c(C(F)(F)F)c3)c2)n1` [1-(4-Chloro-3-(trifluoromethyl)phenyl)-3-(3-(methyl (2-methyl-6-(4-methylpiperazin-1-yl)pyrimidin-4-yl)amino)phenyl)urea (Compound 7)]: the pIC50 was 5.30 in test [1] and 5.28 in test [2].

As to `Cc1nc(N2CCOCC2)cc(N(C)c2cccc(NC(=O)Nc3ccc(Cl)c(C(F)(F)F)c3)c2)n1` [1-(4-Chloro-3-(trifluoromethyl)phenyl)-3-(3-(methyl (2-methyl-6-morpholinopyrimidin-4-yl)amino)phenyl)urea (Compound 6)], the pIC50 in test [1] and in test [2] was 5.86 each time.
